Like-named read-outs stand apart in the source and are kept apart here.

By IC50 is commonly meant the point on the concentration scale where inhibition reaches its midpoint.

Holding throughout (test): Cell proliferation assay (6 days, CellTiter-Glo)
Common to all, as to type: cell-based
(In general: Cellular ATP, detected with luciferase, serves as a proxy for viable cell number.)

The subject of one test is U-2932. Particulars: Homo sapiens, U2932, 144 h, DLBCL, EZH2 WT, read-out: AVERAGE GROWTH IC50. An excerpt:
(§1) Thus, Example 22 and Table 6 better reflect the inhibition of HZH2 inhibitors on cell lines, e.g. the lymphoma cell lines. DLBCL cell lines were the most sensitive to EZH2 inhibition (FIG. 11a). […] Evaluation of GSK126 in additional lymphoma cell lines and extensive genomic and epigenomic characterization will be required to fully elucidate the determinants of sensitivity among lymphoma subtypes.
(§2) Biochemical assays utilized the 5-member PRC2 complex (human Flag-EZH2, EED, SUZ12, AEBP2, RbAp48) containing either WT or mutant EZH2, [^3H-]SAM and the indicated peptide substrate; reactions were incubated for 30 minutes. Global histone modification levels were determined by ELISA or western blot methods using antibodies specific for total histone H3, H3K27me1, H3K27me2, or H3K27me3. Cell proliferation and Caspase-3/7 activity were assessed using CellTiter-Glo and Caspase-Glo 3/7 (Promega), respectively. Gene expression profiling was conducted using Affymetrix Human Genome U133 Plus 2.0 microarrays. Differentially-expressed probe sets were determined by fitting the data to a linear model using the limma statistical package (http://www.bioconductor.org) and carrying out pair-wise contrasts of treated versus control. Significant probe sets were filtered for detection (log2 signal threshold of 8), an average fold-change >2 or <−2, or >1.5 or <−1.5, where indicated, with p-values adjusted for multiple testing correction by FDR (Benjamini Hochberg)<0.1. H3K27me3 ChIP reads were aligned using Bowtie (56). H3K27me3 enrichment peaks were identified using SICER (57) with optimized parameters. A custom PERL script was utilized to quantify the average basal H3K27me3 ChIP-seq tag density across gene sets. All in vivo studies were conducted after review by the Institutional Animal Care and Use Committee at GSK and in accordance with the GSK Policy on the Care, Welfare and Treatment of Laboratory Animals. GSK126 and vehicle were administered to mice intraperitoneally. Two-tailed t-tests were conducted assuming two samples of equal variance.
(§3) The optimal cell seeding was determined empirically for all cell lines by examining the growth of a wide range of seeding densities in a 384-well format to identify conditions that permitted proliferation for 6 days. […] Plates were incubated for 6 days at 37° C. in 5% CO2. Cells were then lysed with CellTiter-Glo (Promega) and chemiluminescent signal was detected with a TECAN Safire2 microplate reader. In addition, an untreated plate of cells was harvested at the time of compound addition (T0) to quantify the starting number of cells. CTG values obtained after the 6 day treatment were expressed as a percent of the T0 value and plotted against compound concentration.

In the next test the test system is WSU-NHL. As to conditions: Homo sapiens, 144 h, FL, EZH2 D185H (HET), read-out: AVERAGE GROWTH IC50.
Text: as §1, §2, §3

For the next test, the system named is Jiyoye. As to conditions: Homo sapiens, 144 h.
Text: as §1, §2, §3

The next test has as its system OCI-LY-19. As to conditions: Homo sapiens, OCI-LY19, 144 h, DLBCL, EZH2 WT, read-out: AVERAGE GROWTH IC50.
Text: as §1, §2, §3

The subject of a further test is U-2940. Particulars: Homo sapiens, 144 h, DLBCL, EZH2 WT, read-out: AVERAGE GROWTH IC50.
Text: as §1, §2, §3

In the next test the test system is RI-1. Particulars: Homo sapiens, 144 h, MCL, EZH2 WT, read-out: AVERAGE GROWTH IC50.
Text: as §1, §2, §3

The next test relates to RPMI-6666. Particulars: Homo sapiens, 144 h, HODGKIN'S, EZH2 WT, read-out: AVERAGE GROWTH IC50.
Text: as §1, §2, §3

Another test deals with DG-75. As to conditions: Homo sapiens, 144 h, BURKITT, EZH2 WT, read-out: AVERAGE GROWTH IC50.
Text: as §1, §2, §3

The next test deals with BC-1. As to conditions: Homo sapiens, BC1, 144 h, AIDS-BCBL, EZH2 WT, read-out: AVERAGE GROWTH IC50.
Text: as §1, §2, §3

For another test, the system named is Toledo. As to conditions: Homo sapiens, 144 h, DLBCL, EZH2 WT, read-out: AVERAGE GROWTH IC50.
Text: as §1, §2, §3

The next test has as its system MINO. Particulars: Homo sapiens, 144 h, B-NHL, EZH2 D185H (HET), read-out: AVERAGE GROWTH IC50.
Text: as §1, §2, §3

The subject of the next test is U-698-M. As to conditions: Homo sapiens, 144 h, B-NHL, EZH2 WT, read-out: AVERAGE GROWTH IC50.
Text: as §1, §2, §3

Another test concerns L-428. As to conditions: Homo sapiens, 144 h, HODGKIN'S, EZH2 Y641S (HET), read-out: AVERAGE GROWTH IC50.
Text: as §1, §2, §3

The test system of another test is Farage. As to conditions: Homo sapiens, 144 h, DLBCL, EZH2 D185H (HET), read-out: AVERAGE GROWTH IC50.
Text: as §1, §2, §3

The test system of another test is BC-3. Particulars: Homo sapiens, 144 h, PEL, AIDS-BCBL, EZH2 D185H (HET), read-out: AVERAGE GROWTH IC50.
Text: as §1, §2, §3

In a further test the test system is CI-1. As to conditions: Homo sapiens, 144 h, B-NHL, EZH2 D185H (HET), read-out: AVERAGE GROWTH IC50.
Text: as §1, §2, §3

The test system of the next test is SU-DHL-6. Particulars: Homo sapiens, 144 h, DLBCL, EZH2 Y641N (HET), read-out: AVERAGE GROWTH IC50.
Text: as §1, §2, §3

Another test relates to RC-K8. As to conditions: Homo sapiens, RCK8, 144 h, B-NHL, EZH2 D185H (HET), read-out: AVERAGE GROWTH IC50.
Text: as §1, §2, §3

A further test concerns HT. As to conditions: Homo sapiens, 144 h, DLBCL, EZH2 WT, read-out: AVERAGE GROWTH IC50.
Text: as §1, §2, §3

The next test has as its system MHH-PREB-1. Particulars: Homo sapiens, 144 h, B-NHL, EZH2 WT, read-out: AVERAGE GROWTH IC50.
Text: as §1, §2, §3

`CC[C@H](C)n1cc(C)c2c(C(=O)NCc3c(C)cc(C)[nH]c3=O)cc(-c3ccc(N4CCNCC4)nc3)cc21` [GSK126]: the IC50 in the test on U-2932 worked out at 2.94 µM; in the test with WSU-NHL, 3.54 µM; in the test with Jiyoye (JIYOYE, BURKITT, EZH2 WT, read-out: AVERAGE GROWTH IC50), 0.232 µM; in the test on Jiyoye (Jiyoye, BL cell line with WT EZH2, read-out: growth IC50), 0.23 µM; in the test on OCI-LY-19 it was 1.02 µM; in the test with U-2940, 4.56 µM. Further, the IC50 came out at 7.66 µM in the test on RI-1; 1.43 µM with RPMI-6666; 3.25 µM in the test on DG-75; 8.29 µM in the test on BC-1; 13.8 µM with Toledo; 7.34 µM in the test with MINO. Besides, the IC50 in the test with U-698-M worked out at 5.6 µM; in the test on L-428, 4.7 µM; in the test on Farage, 1.72 µM; in the test with BC-3, 2.22 µM; with CI-1, 4.28 µM; in the test with SU-DHL-6, 0.582 µM. Further, the IC50 was 4.53 µM in the test on RC-K8, 0.516 µM with HT and 5.3 µM with MHH-PREB-1.

The record behind these values is patent US20170348306A1, “METHODS OF TREATING CANCER” (GLAXOSMITHKLINE LLC, priority 2011, published 2017).
